What was measured:
[1] = molecular target: cysteines in MDA-MB-231 and Ramos cells (Homo sapiens, UniProt Q92616); assay: Competitive isoTOP-ABPP in situ (fragment-treated cells); type: cell-based; conditions: 200 μM, insitu
Experimental: (§1) Fragments 4 and 11 were screened at 100 μM in situ. […] Site-specific engagement of electrophilic fragments was assessed by blockade of IA-alkyne probe labeling. […] Ratios for unique peptide entries were calculated for each experiment; overlapping peptides with the same modified cysteine (e.g. different charge states, MudPIT chromatographic steps or tryptic termini) were grouped together and the median ratio was reported as the final ratio (R). The peptide ratios reported by CIMAGE were further filtered to ensure the removal or correction of low quality ratios in each individual dataset. […] R values were calculated and individual datasets were filtered as described above (R value calculation and processing).

O00541_C272 = O00541_C272 (Homo sapiens, UniProt O00541); assay: Competitive isoTOP-ABPP, cell lysates; type: binding; conditions: 500 μm
[2] = molecular target: T1, cysteines in MDA-MB-231 and Ramos cells (Homo sapiens, UniProt P10398); assay: Competitive isoTOP-ABPP in situ (fragment-treated cells); type: cell-based; conditions: 200 μM, insitu
T1 sequence (P10398 1-606): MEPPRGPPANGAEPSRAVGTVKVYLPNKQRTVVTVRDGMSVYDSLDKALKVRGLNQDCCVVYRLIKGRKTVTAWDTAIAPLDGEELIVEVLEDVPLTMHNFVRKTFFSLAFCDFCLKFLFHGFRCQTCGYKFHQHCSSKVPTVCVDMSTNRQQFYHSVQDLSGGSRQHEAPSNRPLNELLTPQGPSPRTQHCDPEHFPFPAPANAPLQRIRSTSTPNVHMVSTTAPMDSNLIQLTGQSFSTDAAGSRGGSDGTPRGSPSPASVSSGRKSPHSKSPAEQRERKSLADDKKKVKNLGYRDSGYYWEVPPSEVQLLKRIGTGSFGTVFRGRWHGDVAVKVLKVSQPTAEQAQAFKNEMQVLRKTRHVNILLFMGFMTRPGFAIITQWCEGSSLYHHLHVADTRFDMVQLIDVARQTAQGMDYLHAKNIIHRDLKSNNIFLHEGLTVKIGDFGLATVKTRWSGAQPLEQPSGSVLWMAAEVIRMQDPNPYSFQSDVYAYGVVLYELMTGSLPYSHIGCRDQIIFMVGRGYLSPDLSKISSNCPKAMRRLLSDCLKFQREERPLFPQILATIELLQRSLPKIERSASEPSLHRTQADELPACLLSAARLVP
Experimental: as §1

[3] = molecular target: T2, cysteines in MDA-MB-231 and Ramos cells (Homo sapiens, UniProt Q8N2W9); assay: as above; type: cell-based; conditions: 200 μM, insitu
T2 sequence (Q8N2W9 1-510): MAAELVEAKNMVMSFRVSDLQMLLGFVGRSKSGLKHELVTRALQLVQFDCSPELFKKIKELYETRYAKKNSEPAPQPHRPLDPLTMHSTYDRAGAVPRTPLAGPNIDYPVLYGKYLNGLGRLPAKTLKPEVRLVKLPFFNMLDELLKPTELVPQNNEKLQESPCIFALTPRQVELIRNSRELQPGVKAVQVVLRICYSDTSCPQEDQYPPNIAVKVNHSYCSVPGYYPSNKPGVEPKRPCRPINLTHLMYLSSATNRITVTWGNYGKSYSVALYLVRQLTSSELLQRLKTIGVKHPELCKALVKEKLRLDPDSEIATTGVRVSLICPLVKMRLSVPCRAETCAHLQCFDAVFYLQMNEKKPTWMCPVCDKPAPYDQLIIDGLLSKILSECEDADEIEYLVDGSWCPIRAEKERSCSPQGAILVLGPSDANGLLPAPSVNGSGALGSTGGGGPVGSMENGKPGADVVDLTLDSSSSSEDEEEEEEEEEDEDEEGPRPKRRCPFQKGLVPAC
Experimental: as §1

[4] = molecular target: cysteines in MDA-MB-231 and Ramos cells (Homo sapiens, UniProt Q9ULA0); assay: as above; type: cell-based; conditions: 200 μM, insitu
Experimental: as §1

[5] = molecular target: cysteines in MDA-MB-231 and Ramos cells (Homo sapiens, UniProt O95881); assay: as above; type: cell-based; conditions: 200 μM, insitu, 231
Experimental: as §1

[6] = molecular target: cysteines in MDA-MB-231 and Ramos cells (Homo sapiens, UniProt Q8NFF5); assay: as above; type: cell-based
Experimental: as §1

O114933_C98 = O114933_C98 (Homo sapiens, UniProt O14933); assay: Competitive isoTOP-ABPP, cell lysates; type: binding; conditions: 500 μm
[7] = molecular target: cysteines in MDA-MB-231 and Ramos cells (Homo sapiens, UniProt Q00610); assay: Competitive isoTOP-ABPP in situ (fragment-treated cells); type: cell-based; conditions: 200 μM, insitu, 231
Experimental: as §1

O14933 C98 = O14933 C98 (Homo sapiens, UniProt O14933); assay: Competitive isoTOP-ABPP, cell lysates; type: binding; conditions: 500 μM, invitro, ramos
Chain of O14933 C98 (O14933 whole entry): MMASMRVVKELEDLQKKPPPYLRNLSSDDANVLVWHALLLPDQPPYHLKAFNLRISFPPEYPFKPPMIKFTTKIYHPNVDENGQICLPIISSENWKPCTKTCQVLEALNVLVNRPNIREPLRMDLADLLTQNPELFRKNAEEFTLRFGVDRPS

Chain of O114933_C98 (O14933 whole entry, the tested form may be a part): as the sequence (O14933 whole entry) above
Chain of cysteines in MDA-MB-231 and Ramos cells (Homo sapiens, UniProt Q00610) (Q00610 whole entry, the tested form may be a part): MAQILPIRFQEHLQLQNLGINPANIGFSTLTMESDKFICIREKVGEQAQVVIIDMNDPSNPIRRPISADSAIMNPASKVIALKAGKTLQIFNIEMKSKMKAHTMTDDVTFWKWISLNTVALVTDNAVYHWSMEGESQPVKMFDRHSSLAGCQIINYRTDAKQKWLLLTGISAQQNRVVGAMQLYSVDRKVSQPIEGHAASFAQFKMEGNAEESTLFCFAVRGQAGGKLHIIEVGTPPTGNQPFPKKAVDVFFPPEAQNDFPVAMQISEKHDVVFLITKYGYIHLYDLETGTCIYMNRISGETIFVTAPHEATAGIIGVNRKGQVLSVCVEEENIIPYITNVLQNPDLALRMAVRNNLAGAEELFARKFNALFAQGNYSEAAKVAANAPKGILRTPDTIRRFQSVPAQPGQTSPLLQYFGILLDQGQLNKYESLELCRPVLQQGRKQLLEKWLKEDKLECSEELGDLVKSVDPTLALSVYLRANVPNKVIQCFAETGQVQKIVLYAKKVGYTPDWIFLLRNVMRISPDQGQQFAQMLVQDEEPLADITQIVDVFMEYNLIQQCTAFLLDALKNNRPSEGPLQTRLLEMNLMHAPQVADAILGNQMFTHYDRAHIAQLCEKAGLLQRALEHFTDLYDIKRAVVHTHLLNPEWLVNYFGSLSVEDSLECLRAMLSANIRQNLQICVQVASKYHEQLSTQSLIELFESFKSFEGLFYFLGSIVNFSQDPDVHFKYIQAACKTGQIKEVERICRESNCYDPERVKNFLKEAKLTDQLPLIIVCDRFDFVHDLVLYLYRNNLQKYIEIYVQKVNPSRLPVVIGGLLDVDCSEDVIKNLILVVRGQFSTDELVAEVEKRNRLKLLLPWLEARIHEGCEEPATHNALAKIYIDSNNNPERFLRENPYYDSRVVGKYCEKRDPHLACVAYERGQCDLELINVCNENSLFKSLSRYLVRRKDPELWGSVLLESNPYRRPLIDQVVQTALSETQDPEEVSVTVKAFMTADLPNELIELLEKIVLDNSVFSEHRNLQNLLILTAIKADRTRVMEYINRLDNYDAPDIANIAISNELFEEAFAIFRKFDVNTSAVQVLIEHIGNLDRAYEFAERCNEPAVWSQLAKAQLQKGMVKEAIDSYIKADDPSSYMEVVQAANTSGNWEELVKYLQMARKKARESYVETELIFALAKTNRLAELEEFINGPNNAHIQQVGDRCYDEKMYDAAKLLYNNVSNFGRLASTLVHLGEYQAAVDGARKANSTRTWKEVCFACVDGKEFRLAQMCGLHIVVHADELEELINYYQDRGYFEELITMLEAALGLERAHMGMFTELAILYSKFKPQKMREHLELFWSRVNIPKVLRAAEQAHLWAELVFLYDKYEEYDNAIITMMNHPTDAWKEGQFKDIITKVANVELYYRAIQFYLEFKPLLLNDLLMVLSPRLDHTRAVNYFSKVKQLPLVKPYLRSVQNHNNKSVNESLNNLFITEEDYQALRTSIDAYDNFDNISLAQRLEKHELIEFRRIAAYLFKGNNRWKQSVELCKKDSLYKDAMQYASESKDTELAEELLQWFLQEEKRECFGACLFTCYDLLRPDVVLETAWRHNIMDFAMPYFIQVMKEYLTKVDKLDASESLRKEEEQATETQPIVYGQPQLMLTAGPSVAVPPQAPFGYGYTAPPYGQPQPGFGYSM
Chain of cysteines in MDA-MB-231 and Ramos cells (Homo sapiens, UniProt O95881) (O95881 27-172): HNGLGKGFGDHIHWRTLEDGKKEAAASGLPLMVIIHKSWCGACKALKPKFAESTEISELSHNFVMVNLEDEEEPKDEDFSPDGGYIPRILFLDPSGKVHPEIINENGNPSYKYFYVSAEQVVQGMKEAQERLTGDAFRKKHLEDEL
Chain of cysteines in MDA-MB-231 and Ramos cells (Homo sapiens, UniProt Q92616) (Q92616 whole entry, the tested form may be a part): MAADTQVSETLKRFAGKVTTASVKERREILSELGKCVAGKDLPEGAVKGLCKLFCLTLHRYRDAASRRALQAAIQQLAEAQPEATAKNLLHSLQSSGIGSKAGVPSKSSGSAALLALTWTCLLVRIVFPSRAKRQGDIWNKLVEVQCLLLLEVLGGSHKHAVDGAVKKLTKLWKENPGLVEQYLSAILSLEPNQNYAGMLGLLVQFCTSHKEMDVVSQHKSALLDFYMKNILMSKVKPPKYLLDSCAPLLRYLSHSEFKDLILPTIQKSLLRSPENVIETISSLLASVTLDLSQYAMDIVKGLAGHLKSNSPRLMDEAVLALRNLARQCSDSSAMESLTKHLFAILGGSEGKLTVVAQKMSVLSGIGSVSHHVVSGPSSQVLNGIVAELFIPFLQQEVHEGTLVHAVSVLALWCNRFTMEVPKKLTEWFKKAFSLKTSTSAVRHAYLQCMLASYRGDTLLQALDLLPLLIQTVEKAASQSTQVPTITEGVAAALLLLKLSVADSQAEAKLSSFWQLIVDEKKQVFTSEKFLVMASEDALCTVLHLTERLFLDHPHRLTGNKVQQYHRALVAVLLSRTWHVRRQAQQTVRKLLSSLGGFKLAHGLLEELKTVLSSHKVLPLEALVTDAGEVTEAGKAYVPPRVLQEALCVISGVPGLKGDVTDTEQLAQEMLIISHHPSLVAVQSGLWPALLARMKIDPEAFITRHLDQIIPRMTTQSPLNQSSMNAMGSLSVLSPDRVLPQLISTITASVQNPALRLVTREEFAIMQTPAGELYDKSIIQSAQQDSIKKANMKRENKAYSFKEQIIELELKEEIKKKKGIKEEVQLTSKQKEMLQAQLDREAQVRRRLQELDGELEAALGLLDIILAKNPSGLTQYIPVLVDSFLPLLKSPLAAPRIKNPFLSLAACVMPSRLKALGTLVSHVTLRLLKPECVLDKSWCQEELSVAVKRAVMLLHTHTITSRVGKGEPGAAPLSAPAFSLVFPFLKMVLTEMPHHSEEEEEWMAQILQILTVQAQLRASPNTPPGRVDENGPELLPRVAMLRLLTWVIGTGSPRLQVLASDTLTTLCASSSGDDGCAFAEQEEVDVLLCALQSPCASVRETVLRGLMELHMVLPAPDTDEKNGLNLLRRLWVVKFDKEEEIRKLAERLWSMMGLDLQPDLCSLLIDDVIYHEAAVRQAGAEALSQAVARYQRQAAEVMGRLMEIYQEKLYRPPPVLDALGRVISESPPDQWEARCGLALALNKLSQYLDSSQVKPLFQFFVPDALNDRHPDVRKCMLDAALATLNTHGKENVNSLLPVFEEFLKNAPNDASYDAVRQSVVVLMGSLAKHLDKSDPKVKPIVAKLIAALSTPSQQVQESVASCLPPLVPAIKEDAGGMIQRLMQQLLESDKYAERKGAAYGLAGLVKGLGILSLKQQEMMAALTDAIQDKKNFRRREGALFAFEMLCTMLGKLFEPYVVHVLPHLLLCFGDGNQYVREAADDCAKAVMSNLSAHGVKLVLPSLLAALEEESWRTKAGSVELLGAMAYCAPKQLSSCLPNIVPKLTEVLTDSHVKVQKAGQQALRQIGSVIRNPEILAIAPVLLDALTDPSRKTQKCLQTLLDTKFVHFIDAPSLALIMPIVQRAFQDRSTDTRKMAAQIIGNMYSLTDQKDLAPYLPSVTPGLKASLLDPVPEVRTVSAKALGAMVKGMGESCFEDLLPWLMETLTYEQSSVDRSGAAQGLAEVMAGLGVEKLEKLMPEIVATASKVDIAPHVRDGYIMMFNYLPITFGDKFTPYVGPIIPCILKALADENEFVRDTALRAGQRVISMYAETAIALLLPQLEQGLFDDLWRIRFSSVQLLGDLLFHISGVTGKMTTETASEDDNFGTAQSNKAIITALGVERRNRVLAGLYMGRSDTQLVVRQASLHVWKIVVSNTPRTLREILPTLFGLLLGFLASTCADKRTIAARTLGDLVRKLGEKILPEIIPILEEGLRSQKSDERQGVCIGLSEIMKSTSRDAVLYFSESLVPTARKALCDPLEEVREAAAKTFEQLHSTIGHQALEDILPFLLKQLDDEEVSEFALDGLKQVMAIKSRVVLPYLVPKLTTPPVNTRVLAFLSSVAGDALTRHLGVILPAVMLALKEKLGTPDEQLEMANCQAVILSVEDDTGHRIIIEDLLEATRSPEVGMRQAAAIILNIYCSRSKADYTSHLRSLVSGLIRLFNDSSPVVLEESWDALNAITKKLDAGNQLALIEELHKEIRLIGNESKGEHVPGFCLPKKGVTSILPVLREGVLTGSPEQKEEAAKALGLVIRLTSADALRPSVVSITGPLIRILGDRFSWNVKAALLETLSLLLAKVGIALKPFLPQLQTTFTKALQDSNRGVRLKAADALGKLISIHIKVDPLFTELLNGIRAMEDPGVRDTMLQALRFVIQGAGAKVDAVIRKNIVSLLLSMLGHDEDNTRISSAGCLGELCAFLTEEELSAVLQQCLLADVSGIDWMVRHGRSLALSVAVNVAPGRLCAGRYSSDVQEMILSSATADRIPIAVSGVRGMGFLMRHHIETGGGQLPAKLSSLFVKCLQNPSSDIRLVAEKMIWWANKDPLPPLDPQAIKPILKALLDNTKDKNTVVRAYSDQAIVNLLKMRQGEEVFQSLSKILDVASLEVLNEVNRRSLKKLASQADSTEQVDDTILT

CC(C)CCOCCNC(=O)CCl [compound 27]
isoTOP-ABPP ratio Q92616_C1692 [1]; 231: 0.5

C=CC(=O)N1CCC(c2noc3ccc(F)cc23)CC1 [compound 37]
isoTOP-ABPP reactivity ratio, O00541_C272 (O00541_C272; in-vitro_ramos): 1.0

O=C(CCl)N1CCN(S(=O)(=O)c2ccccc2F)CC1 [compound 10]
isoTOP-ABPP ratio, cysteine P10398_C597 [2]; 231: 1.4
isoTOP-ABPP ratio, cysteine Q8N2W9_C326 [3]; 231: 4.5
isoTOP-ABPP ratio, cysteine Q9ULA0_C144 [4]; 231: 5.2

O=C(CCl)Nc1ccccc1C1CCCCCC1 [compound 35]
isoTOP-ABPP reactivity ratio, O00541_C272 (O00541_C272; in-vitro_ramos): 1.2
isoTOP-ABPP reactivity ratio, O00541_C272 (O00541_C272; in-vitro_ramos_231): 0.8

Cc1ccc(C=C(C#N)C(=O)NCCN2CCOCC2)cc1 [compound 41]
isoTOP-ABPP ratio Q92616_C1692 [1]; 231: 0.7
isoTOP-ABPP ratio Q8N2W9_C326 [3]; 231: 0.8
isoTOP-ABPP ratio O95881_C66 [5]: 1.0
isoTOP-ABPP ratio Q9ULA0_C144 [4]; 231: 0.8

COc1ccc2c(c1)CCCN2C(=O)CCl [compound 2]
isoTOP-ABPP reactivity Q8NFF5_C499 FLAD1 ([6]; 200 μM, insitu, 231): 6.2
isoTOP-ABPP reactivity Q92616_C1692 GCN1L1 [1]; 231: 1.4

C=CC(=O)N1CCC(Cc2ccccc2)CC1 [compound 53]
isoTOP-ABPP reactivity profile ratio, O114933_C98 (O114933_C98; in-vitro_ramos): 1.0

C=CC(=O)Nc1cc(F)c(N2CCN(C(=O)OC(C)(C)C)CC2)c(F)c1 [compound 38]
isoTOP-ABPP ratio Q00610_C870 [7]: 20.0
isoTOP-ABPP ratio Q8N2W9_C326 [3]; 231: 0.9
isoTOP-ABPP ratio O95881_C66 [5]: 1.0
isoTOP-ABPP reactivity ratio, O00541_C272 (O00541_C272; in-vitro_ramos_231): 1.0

O=C(CCl)NC(=O)NC12CC3CC(CC(C3)C1)C2 [compound 12]
isoTOP-ABPP ratio, cysteine Q00610_C870 [7]: 0.9
isoTOP-ABPP ratio, cysteine O95881_C66 [5]: 20.0
isoTOP-ABPP ratio O14933_C98 (O14933 C98): 1.3

O=C(CCl)NC1C(O)OC(CO)C(O)C1O (mixture of isomers) [compound 44]
isoTOP-ABPP reactivity profile ratio, O114933_C98 (O114933_C98; in-vitro_ramos_231): 2.0

C=CC(=O)N(Cc1cccnc1)c1cc(C(F)(F)F)cc(C(F)(F)F)c1 [compound 31]
isoTOP-ABPP ratio Q92616_C1692 [1]; 231: 0.6
isoTOP-ABPP ratio Q92616_C1692 ([1]; ramos): 2.0

Cn1cc(S(=O)(=O)N2CCOCC2)cc1C(=O)NC(=O)CCl [compound 11]
isoTOP-ABPP ratio, cysteine Q8NFF5_C499 ([6]; 100 μM in situ 231): 16
isoTOP-ABPP ratio O14933_C98 (O14933 C98): 3.4

O=C(CCl)NCCc1c[nH]c2ccccc12 [compound 13]
isoTOP-ABPP ratio, cysteine P10398_C597 ([2]; ramos): 1.0
isoTOP-ABPP ratio, cysteine Q00610_C870 [7]: 1.7
isoTOP-ABPP ratio, cysteine Q92616_C1692 ([1]; ramos): 0.9
isoTOP-ABPP ratio, cysteine Q8N2W9_C326 ([3]; ramos): 20.0
isoTOP-ABPP ratio, cysteine O95881_C66 [5]: 20.0
isoTOP-ABPP ratio O14933_C98 (O14933 C98): 1.0

O=C(CCl)N1CCN(CC(=O)N2CCOCC2)CC1 [compound 29]
isoTOP-ABPP ratio P10398_C597 ([2]; ramos): 1.2
isoTOP-ABPP ratio Q8NFF5_C499 ([6]; 200 μM, insitu, ramos): 3.4
isoTOP-ABPP ratio Q9ULA0_C144 ([4]; ramos): 1.3

O=C(CCl)NC12CC3CC(CC(C3)C1)C2 [compound 21]
isoTOP-ABPP ratio, cysteine P10398_C597 [2]; 231: 0.7
isoTOP-ABPP ratio, cysteine Q8N2W9_C326 [3]; 231: 1.0

O=C(CCl)N1CCC(Cc2ccccc2)CC1 [compound 9]
isoTOP-ABPP reactivity Q9ULA0_C144 DNPEP [4]; 231: 2.1

O=C(CCl)N1CCc2cc(Br)ccc21 [compound 50]
isoTOP-ABPP reactivity profile ratio, O114933_C98 (O114933_C98; in-vitro_ramos_231): 1.5

N#CC(=Cc1ccc(-c2ccccc2Cl)o1)C(N)=O [compound 42]
isoTOP-ABPP reactivity profile ratio, O114933_C98 (O114933_C98; in-vitro_ramos): 1.0

O=C(CCl)Nc1ccc(-c2ccccc2)cc1 [compound 52]
isoTOP-ABPP reactivity profile ratio, O114933_C98 (O114933_C98; in-vitro_ramos): 1.4
isoTOP-ABPP reactivity profile ratio, O114933_C98 (O114933_C98; in-vitro_ramos_231): 1.4
